{"source": "BigSolDB 2.1", "data": [{"compound": "O=[N+]([O-])N(CCO)CCO.O=[N+]([O-])O.O=[N+]([O-])O", "values": [{"measurement": "solubility (mole fraction)", "setting": "in 1,2-dichloroethane, 283.15 K", "result": 0.388}, {"measurement": "solubility (mole fraction)", "setting": "in 1,2-dichloroethane, 288.15 K", "result": 0.441}, {"measurement": "solubility (mole fraction)", "setting": "in 1,2-dichloroethane, 293.15 K", "result": 0.524}, {"measurement": "solubility (mole fraction)", "setting": "in 1,2-dichloroethane, 298.15 K", "result": 0.587}, {"measurement": "solubility (mole fraction)", "setting": "in 1,2-dichloroethane, 303.15 K", "result": 0.641}, {"measurement": "solubility (mole fraction)", "setting": "in 1,2-dichloroethane, 308.15 K", "result": 0.704}, {"measurement": "solubility (mole fraction)", "setting": "in 1,2-dichloroethane, 313.15 K", "result": 0.787}, {"measurement": "solubility (mole fraction)", "setting": "in 1,4-dioxane, 283.15 K", "result": 0.191}, {"measurement": "solubility (mole fraction)", "setting": "in 1,4-dioxane, 288.15 K", "result": 0.245}, {"measurement": "solubility (mole fraction)", "setting": "in 1,4-dioxane, 293.15 K", "result": 0.318}, {"measurement": "solubility (mole fraction)", "setting": "in 1,4-dioxane, 298.15 K", "result": 0.371}, {"measurement": "solubility (mole fraction)", "setting": "in 1,4-dioxane, 303.15 K", "result": 0.425}, {"measurement": "solubility (mole fraction)", "setting": "in 1,4-dioxane, 308.15 K", "result": 0.488}, {"measurement": "solubility (mole fraction)", "setting": "in 1,4-dioxane, 313.15 K", "result": 0.562}, {"measurement": "solubility (mole fraction)", "setting": "in DMSO, 283.15 K", "result": 0.0407}, {"measurement": "solubility (mole fraction)", "setting": "in DMSO, 288.15 K", "result": 0.0506}, {"measurement": "solubility (mole fraction)", "setting": "in DMSO, 293.15 K", "result": 0.0633}, {"measurement": "solubility (mole fraction)", "setting": "in DMSO, 298.15 K", "result": 0.0785}, {"measurement": "solubility (mole fraction)", "setting": "in DMSO, 303.15 K", "result": 0.107}, {"measurement": "solubility (mole fraction)", "setting": "in DMSO, 308.15 K", "result": 0.132}, {"measurement": "solubility (mole fraction)", "setting": "in DMSO, 313.15 K", "result": 0.163}, {"measurement": "solubility (mole fraction)", "setting": "in acetone, 283.15 K", "result": 0.234}, {"measurement": "solubility (mole fraction)", "setting": "in acetone, 288.15 K", "result": 0.26}, {"measurement": "solubility (mole fraction)", "setting": "in acetone, 293.15 K", "result": 0.321}, {"measurement": "solubility (mole fraction)", "setting": "in acetone, 298.15 K", "result": 0.384}, {"measurement": "solubility (mole fraction)", "setting": "in acetone, 303.15 K", "result": 0.439}, {"measurement": "solubility (mole fraction)", "setting": "in acetone, 308.15 K", "result": 0.536}, {"measurement": "solubility (mole fraction)", "setting": "in acetone, 313.15 K", "result": 0.645}, {"measurement": "solubility (mole fraction)", "setting": "in acetonitrile, 283.15 K", "result": 0.182}, {"measurement": "solubility (mole fraction)", "setting": "in acetonitrile, 288.15 K", "result": 0.258}, {"measurement": "solubility (mole fraction)", "setting": "in acetonitrile, 293.15 K", "result": 0.314}, {"measurement": "solubility (mole fraction)", "setting": "in acetonitrile, 298.15 K", "result": 0.36}, {"measurement": "solubility (mole fraction)", "setting": "in acetonitrile, 303.15 K", "result": 0.456}, {"measurement": "solubility (mole fraction)", "setting": "in acetonitrile, 308.15 K", "result": 0.519}, {"measurement": "solubility (mole fraction)", "setting": "in acetonitrile, 313.15 K", "result": 0.558}, {"measurement": "solubility (mole fraction)", "setting": "in dichloromethane, 283.15 K", "result": 0.0359}, {"measurement": "solubility (mole fraction)", "setting": "in dichloromethane, 288.15 K", "result": 0.0615}, {"measurement": "solubility (mole fraction)", "setting": "in dichloromethane, 293.15 K", "result": 0.109}, {"measurement": "solubility (mole fraction)", "setting": "in dichloromethane, 298.15 K", "result": 0.205}, {"measurement": "solubility (mole fraction)", "setting": "in dichloromethane, 303.15 K", "result": 0.367}, {"measurement": "solubility (mole fraction)", "setting": "in dichloromethane, 308.15 K", "result": 0.448}, {"measurement": "solubility (mole fraction)", "setting": "in dichloromethane, 313.15 K", "result": 0.515}, {"measurement": "solubility (mole fraction)", "setting": "in ethanol, 283.15 K", "result": 0.00314}, {"measurement": "solubility (mole fraction)", "setting": "in ethanol, 288.15 K", "result": 0.00518}, {"measurement": "solubility (mole fraction)", "setting": "in ethanol, 293.15 K", "result": 0.00751}, {"measurement": "solubility (mole fraction)", "setting": "in ethanol, 298.15 K", "result": 0.00986}, {"measurement": "solubility (mole fraction)", "setting": "in ethanol, 303.15 K", "result": 0.0118}, {"measurement": "solubility (mole fraction)", "setting": "in ethanol, 308.15 K", "result": 0.0131}, {"measurement": "solubility (mole fraction)", "setting": "in ethanol, 313.15 K", "result": 0.0139}, {"measurement": "solubility (mole fraction)", "setting": "in ethyl acetate, 283.15 K", "result": 0.131}, {"measurement": "solubility (mole fraction)", "setting": "in ethyl acetate, 288.15 K", "result": 0.17}, {"measurement": "solubility (mole fraction)", "setting": "in ethyl acetate, 293.15 K", "result": 0.209}, {"measurement": "solubility (mole fraction)", "setting": "in ethyl acetate, 298.15 K", "result": 0.285}, {"measurement": "solubility (mole fraction)", "setting": "in ethyl acetate, 303.15 K", "result": 0.31}, {"measurement": "solubility (mole fraction)", "setting": "in ethyl acetate, 308.15 K", "result": 0.334}, {"measurement": "solubility (mole fraction)", "setting": "in ethyl acetate, 313.15 K", "result": 0.362}, {"measurement": "solubility (mole fraction)", "setting": "in methanol, 283.15 K", "result": 0.00238}, {"measurement": "solubility (mole fraction)", "setting": "in methanol, 288.15 K", "result": 0.00469}, {"measurement": "solubility (mole fraction)", "setting": "in methanol, 293.15 K", "result": 0.0076}, {"measurement": "solubility (mole fraction)", "setting": "in methanol, 298.15 K", "result": 0.0106}, {"measurement": "solubility (mole fraction)", "setting": "in methanol, 303.15 K", "result": 0.0126}, {"measurement": "solubility (mole fraction)", "setting": "in methanol, 308.15 K", "result": 0.0166}, {"measurement": "solubility (mole fraction)", "setting": "in methanol, 313.15 K", "result": 0.0207}, {"measurement": "solubility (mole fraction)", "setting": "in toluene, 283.15 K", "result": 0.0112}, {"measurement": "solubility (mole fraction)", "setting": "in toluene, 288.15 K", "result": 0.0143}, {"measurement": "solubility (mole fraction)", "setting": "in toluene, 293.15 K", "result": 0.0177}, {"measurement": "solubility (mole fraction)", "setting": "in toluene, 298.15 K", "result": 0.0252}, {"measurement": "solubility (mole fraction)", "setting": "in toluene, 303.15 K", "result": 0.0276}, {"measurement": "solubility (mole fraction)", "setting": "in toluene, 308.15 K", "result": 0.032}, {"measurement": "solubility (mole fraction)", "setting": "in toluene, 313.15 K", "result": 0.0374}]}]}
